Source: US9879050B2, “Substituted urea depsipeptide analogs as activators of the CLPP endopeptidase” (priority 2013, dated 2018)
In brackets after ≈: the same amount, converted by molar mass. Where two headings read alike, the source gives them in different places. *1 amine or outer side, *2 acyl side, *3 side chain or, on linkers, in order; H or OH if unused. Where a SMILES comes first, the peptide text is derived from it. Bridges are numbered along the chain shown (N, C = ends). [ ]: non-standard residue; d: D form. The star is where a group is joined. Phe(3,5-F2) = N[C@@H](Cc1cc(F)cc(F)c1)C(=O)O; Pro(4S-Me) = C[C@@H]1CN[C@H](C(=O)O)C1; NH(4-Et-phenyl) = CCc1ccc(N*)cc1; aThr = C[C@H](O)[C@H](N)C(=O)O; Pip = O=C(O)[C@@H]1CCCCN1; CO = O=C([*:1])[*:2]

How the values were obtained:
S. aureus ClpP (Sa-ClpP) = molecular target: T1, S. aureus ClpP (Sa-ClpP) (Staphylococcus aureus, UniProt Q2G036); experiment: ClpP activation, casein-BODIPY digestion assay (first described method); type: biochemical; settings: first described ClpP activation assay (**); 10 μM saClpP, 25 μg/ml BODIPY FL casein, 37° C.; read-out: ClpP Activation EC50
T1 construct: made in house; host or cells: E. coli BL21 (DE3)
T1 sequence (Q2G036 whole entry): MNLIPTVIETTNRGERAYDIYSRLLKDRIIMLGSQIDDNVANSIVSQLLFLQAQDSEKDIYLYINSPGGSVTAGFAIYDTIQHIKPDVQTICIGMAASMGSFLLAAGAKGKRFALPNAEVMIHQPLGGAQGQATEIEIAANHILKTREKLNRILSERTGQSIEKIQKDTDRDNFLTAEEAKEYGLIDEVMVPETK
Experimental: The compounds were assayed in a casein digestion assay in order to determine their effect on ClpP activation. Briefly, the assay was carried out using S. aureus ClpP (“Sa-ClpP”) overexpressed in E. coli BL21 (DE3) and purified in a two-step process. Purity of the protein was assessed through SDS PAGE analysis. EC50 evaluations were conducted in triplicate in a 20 μl assay format using a method adapted from Maurizi et al. (Methods Enzymol. (1994) 244:314-331.). Each well contained 10 μM saClpP, 25 μg/ml BODIPY FL casein (Invitrogen Corporation, San Diego, Calif.), and test compound in concentrations ranging between 0-100 μM in assay buffer (50 mM Tris pH 8, 200 mM KCl, and 1 mM TCEP). The reaction took place at 37° C. Fluorescence (excitation 485 nm; emission 528 nm) was measured in five minute intervals over a 45 min period using a BioTek HT fluorescence microplate reader (BioTek Instruments, Inc., Winooski, Vt.). Velocity of each reaction was calculated and data was fit to a dose response curve using GraphPad Prism® software (GraphPad Software, Inc., La Jolla, Calif.). EC50 is the effective concentration of compound which causes 50% activation of S. aureus ClpP in the foregoing BODIPY FL casein assay.

Sa-ClpP [1] = molecular target: T2, Sa-ClpP (Staphylococcus aureus, UniProt Q2G036); experiment: ClpP activation, EnzCheck Protease Assay with Bodipy-FL casein (second described method); type: biochemical, S. aureus; settings: read-out: ClpP Activation EC50 (converted)
T2 construct: made in house; host or cells: E. coli BL21 (DE3)
T2 sequence (Q2G036 whole entry): as above
How it was run: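 Sa-ClpP (2 μM in master mix) with Bodipy-FL casein (2 μM in master mix) in Tris-HCl pH 8.0, 0.01% Triton X-100, compounds in 2% DMSO, triplicate. Fluorescence (ex 485/em 520 nm) followed 30 min; degradation slopes normalized to ADEP4 and DMSO controls, EC50 and % activation by four-parameter fit.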

Sa-ClpP [2] = molecular target: T2, Sa-ClpP; experiment: ADEP displacement fluorescence polarization assay; type: binding, S. aureus; settings: 1 μM Sa-ClpP, 50 nM FP probe ADEP 2591; read-out: ADEP Displacement IC50
How it was run: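 Displacement of TAMRA-labelled ADEP 2591 probe (50 nM) from 1 μM Sa-ClpP, pre-equilibrated 1 h in Tris·HCl pH 8.0 with 2% DMSO, then 120 min at room temperature with compound, triplicate. Polarization (mP) read ex 530/em 579 nm, normalised to 20 μM ADEP 2378 and DMSO controls; four-parameter fit.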

[3] = Cytotoxicity assay, CellTiter-Glo cell viability; type: cell-based; settings: African green monkey
How it was run: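 Vero cells seeded overnight at 37 °C in DMEM with 10% FBS, then exposed to serial dilutions of compound for 72 h. Viability read by CellTiter-Glo luminescence; IC50 from duplicates, given as the range of two independent experiments.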

S. aureus USA 300 ΔClpP = experiment: Minimal inhibitory concentration, microbroth dilution; type: cell-based, Staphylococcus aureus; settings: ClpP inactivated strain
How it was run: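 MICs were determined by CLSI broth microdilution, using two-fold compound dilutions from a final 200 μM and about 10^5 cfu/mL inoculum. Plates were incubated aerobically at 37 °C overnight. The MIC was read visually as the lowest concentration preventing growth.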

S. pneumoniae R6 = experiment: as above; type: cell-based; settings: Streptococcus pneumoniae, R6, read-out: Minimal Inhibitory Concentration S. pneumoniae R6
How it was run: (§1)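 Twofold serial dilutions in broth per CLSI M7-A7 microbroth dilution, incubated aerobically overnight at 37° C. MIC read visually as lowest concentration preventing bacterial growth.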

S. pyogenes ATCC 700294 = experiment: as above; type: cell-based; settings: Streptococcus pyogenes, ATCC700294, read-out: Minimal Inhibitory Concentration S. pyogenes ATCC 700294
How it was run: as §1

B. subtilis ATCC 23857 = experiment: as above; type: cell-based; settings: Bacillus subtilis, ATCC23857, read-out: Minimal Inhibitory Concentration B. subtilis ATCC 23857
Experimental: (§2) Minimal inhibitory concentrations (“MICs”) were determined using the microbroth dilution method according to Clinical Laboratory Standards Institute (CLSI; National, C.F. C. L. S., Methods for Dilution Antimicrobial Susceptibility Tests for Bacteria Grow aerobically-Seventh Edition: Approved Standard M7-A7, CLSI, Wayne, Pa., USA, 2008) and were read by visual inspection. Two fold serial dilutions of test compound in 100 μL of the appropriate broth media were first prepared in 96-well round bottom microtiter plates (Nalgene Nunc International, Rochester, N.Y., USA). An equivalent volume (100 μL) of bacterial broth inocula containing approximately 10^5 bacterial cfu/mL was added to each well to give final concentrations of test compound starting at 200 μM. The plates were then incubated aerobically at 37° C. All strains were incubated overnight. After incubations, in all cases the MIC was recorded as the lowest concentration of drug that prevented bacterial growth. The bacterial strains for which MIC was determined as described in Table 4.

S. aureus ATCC 29213 = experiment: as above; type: cell-based; settings: Staphylococcus aureus, ATCC29213, read-out: Minimal Inhibitory Concentration S. aureus ATCC 29213
Experimental: as §2

[4] = Vero cells, 72 hours, read-out: Cytotoxicity IC50

Compound | EC50 (S. aureus ClpP (Sa-ClpP)) | EC50 (Sa-ClpP [1]) | IC50 (Sa-ClpP [2]) | IC50 at 72 h [3] | IC50 at 72 h ([3]; Vero kidney epithelial cells (ATCC CCL-81), Vero cells, 72 hours, read-out: Cytotoxicity IC50) | IC50 at 72 h [3, 4] | Minimal Inhibitory Concentration S. aureus USA 300 ΔClpP (S. aureus USA 300 ΔClpP) | MIC (S. pneumoniae R6) | MIC (S. pyogenes ATCC 700294) | MIC (B. subtilis ATCC 23857) | MIC (S. aureus ATCC 29213)
CCc1cccc(NC(=O)N[C@@H](Cc2ccccc2)C(=O)N[C@H]2COC(=O)[C@@H]3C[C@@H](C)CN3C(=O)[C@H](C)NC(=O)[C@@H]3CCCCN3C(=O)[C@@H]3CCCN3C2=O)c1 [Compound 10, (S)—N-((2R,6S,8aS,14aS,20S,23aS)-2,6-Dimethyl-5,8,14,19,23-Pentaoxooctadecahydro-1H,5H,14H,19H-Pyrido[2,1-1]Dipyrrolo[2,1-C:2′,1′-L][1]Oxa[4,7,10,13]Tetraazacyclohexadecin-20-Yl)-2-(3-(3-Ethylphenyl)Ureido)-3-Phenylpropanamide] | 1500 ± 600 nM | 900 ± 18 nM | 13.6 ± 1.7 µM | 74.8 ± 4.6 µM |  |  |  |  |  |  | 
C[C@@H]1C[C@H]2C(=O)OC[C@H](NC(=O)[C@H](Cc3cc(F)cc(F)c3)NC(=O)Nc3ccc(OC(F)(F)F)cc3)C(=O)N3CCC[C@H]3C(=O)N3CCCC[C@H]3C(=O)N[C@@H](C)C(=O)N2C1 [Compound 13, (S)-3-(3,5-Difluorophenyl)-N-((2R,6S,8aS,14aS,20S,23aS)-2,6-Dimethyl-5,8,14,19,23-Pentaoxooctadecahydro-1H,5H,14H,19H-Pyrido[2,1-I]Dipyrrolo[2,1-C:2′,1′-L][1]Oxa[4,7,10,13]Tetraazacyclohexadecin-20-Yl)-2-(3-(4-(Trifluoromethoxy)Phenyl)Ureido)Propanamide] | 3200 ± 600 nM |  | 5.69 ± 0.5 µM | 70.9 ± 8.9 µM |  |  |  |  |  |  | 
CCc1ccc(NC(=O)N[C@@H](Cc2cc(F)cc(F)c2)C(=O)N[C@H]2COC(=O)[C@@H]3C[C@@H](C)CN3C(=O)[C@H](C)NC(=O)[C@@H]3CCCCN3C(=O)[C@@H]3CCCN3C2=O)cc1 [Compound 14, (S)-3-(3,5-Difluorophenyl)-N-((2R,6S,8aS,14aS,20S,23aS)-2,6-Dimethyl-5,8,14,19,23-Pentaoxooctadecahydro-1H,5H,14H,19H-Pyrido[2,1-I]Dipyrrolo[2,1-C:2′,1′-L][1]Oxa[4,7,10,13]Tetraazacyclohexadecin-20-Yl)-2-(3-(4-Ethylphenyl)Ureido)Propanamide] | 2500 ± 600 nM |  | 61.3 ± 5 µM | 70.5 ± 13.5 µM |  |  |  |  |  |  | 
CCc1ccc(NC(=O)N[C@@H](Cc2cc(F)cc(F)c2)C(=O)N[C@@H]2C(=O)N3CCC[C@H]3C(=O)N3CCCC[C@H]3C(=O)N[C@@H](C)C(=O)N3C[C@@H](C)C[C@H]3C(=O)O[C@H]2C)cc1 [Compound 21, (S)-3-(3,5-Difluorophenyl)-2-(3-(4-Ethylphenyl)Ureido)-N-((2R,6S,8aS,14aS,20S,21S,23aS)-2,6,21-Trimethyl-5,8,14,19,23-Pentaoxooctadecahydro-1H,5H,14H,19H-Pyrido[2,1-I]Dipyrrolo[2,1-C:2′,1′-L][1]Oxa[4,7,10,13]Tetraazacyclohexadecin-20-Yl)Propanamide] ({NH(4-Et-phenyl)-CO}-[Phe(3,5-F2)][aThr]P[Pip]A[Pro(4S-Me)]; ester 2-C) | 1100 ± 300 nM | 330 nM | 7.3 ± 0.3 µM |  | 68.5 ± 6.6 µM |  |  |  |  |  | 
Cc1ccc(NC(=O)N[C@@H](Cc2cc(F)cc(F)c2)C(=O)N[C@@H]2C(=O)N3CCCC3C(=O)N(C)[C@@H](C)C(=O)N[C@@H](C)C(=O)N3C[C@@H](C)CC3C(=O)O[C@H]2C)cc1 (stereo partly drawn) [Compound 26, (2S)-3-(3,5-Difluorophenyl)-N-((2S,6S,9S,11aS,17S,18S)-2,6,9,10,18-Pentamethyl-5,8,11,16,20-Pentaoxohexadecahydro-1H,5H,16H-Dipyrrolo[2,1-C:2′,1′-L][1]Oxa[4,7,10,13]Tetraazacyclohexadecin-17-Yl)-2-(3-(P-Tolyl)Ureido)Propanamide] |  | 290 ± 10 nM | 8.2 ± 0.3 µM |  |  | 40.5 ± 3.8 µM | 200 µM | 0.125 µM (≈ 0.0977 µg/mL) | 0.5 µM (≈ 0.391 µg/mL) | 0.03 µM (≈ 0.0235 µg/mL) | 0.2 µM (≈ 0.156 µg/mL)
Cc1ccc(NC(=O)N[C@@H](Cc2cc(F)cc(F)c2)C(=O)N[C@@H]2C(=O)N3CCCC3C(=O)N3CCOCC3C(=O)N[C@@H](C)C(=O)N3C[C@@H](C)CC3C(=O)O[C@H]2C)cc1 (stereo partly drawn) [Compound 33, (S)-3-(3,5-Difluorophenyl)-2-(3-(P-Tolyl)Ureido)-N-((6aS,12S,13S,1 5aS,17S,21S,23aS)-13,17,21-Trimethyl-6,11,15,20,23-Pentaoxooctadecahydro-6H,11H,15H-[1,4]Oxazino[3,4-I]Dipyrrolo[2,1-C:2′,1′-L][1]Oxa[4,7,10,13]Tetraazacyclohexadecin-12-Yl)Propanamide] |  | 390 ± 20 nM | 5.6 ± 0.3 µM |  |  | 41 ± 4.3 µM | 200 µM | 0.098 µM (≈ 0.0794 µg/mL) | 0.39 µM (≈ 0.316 µg/mL) | 0.2 µM (≈ 0.162 µg/mL) | 0.2 µM (≈ 0.162 µg/mL)
Cc1ccc(NC(=O)N[C@@H](Cc2cc(F)cc(F)c2)C(=O)N[C@@H]2C(=O)N3CCCC3C(=O)N3CCCCC3C(=O)N[C@@H](C)C(=O)N3C[C@H](C)CC3C(=O)O[C@H]2C)cc1 (stereo partly drawn) [Compound 39, (S)-3-(3,5-Difluorophenyl)-2-(3-(P-Tolyl)Ureido)-N-((2R,6S,8aS,14aS,20S,21S,23aS)-2,6,21-Trimethyl-5,8,14,19,23-Pentaoxooctadecahydro-1H,5H,14H,19H-Pyrido[2,1-I]Dipyrrolo[2,1-C:2′,1′-L][1]Oxa[4,7,10,13]Tetraazacyclohexadecin-20-Yl)Propanamide] |  | 480 ± 30 nM | 9 ± 0.4 µM |  |  | 40 ± 4.1 µM | 100 µM | 0.05 µM (≈ 0.0404 µg/mL) | 0.2 µM (≈ 0.162 µg/mL) | 0.02 µM (≈ 0.0162 µg/mL) | 0.05 µM (≈ 0.0404 µg/mL)
Cc1ccc(NC(=O)N[C@@H](Cc2ccccc2)C(=O)N[C@H]2COC(=O)C3C[C@H](C)CN3C(=O)[C@H](C)NC(=O)C3CCCCN3C(=O)C3CCCN3C2=O)cc1 (stereo partly drawn) [Compound 43, (S)—N-((2S,6S,8aS,14aS,20S,23aS)-2,6-Dimethyl-5,8,14,19,23-Pentaoxooctadecahydro-1H,5H,14H,19H-Pyrido[2,1-I]Dipyrrolo[2,1-C:2′,1′-L][1]Oxa[4,7,10,13]Tetraazacyclohexadecin-20-Yl)-3-Phenyl-2-(3-(P-Tolyl)Ureido)Propanamide] |  | 370 ± 30 nM | 6.57 ± 0.2 µM |  |  | 74.5 ± 8.8 µM | >200 µM | 0.2 µM (≈ 0.152 µg/mL) | 0.8 µM (≈ 0.606 µg/mL) | 0.4 µM (≈ 0.303 µg/mL) | 1.6 µM (≈ 1.21 µg/mL)
